From patent US9023844B2, “Heterocyclylpyri (mi) dinylpyrazole as fungicidals” (Bayer Intellectual Property GmbH, priority 2011, dated 2015)

Tests used:
[1] = Determination of log P values by HPLC on a reverse phase column (C18), EEC-Directive 79/831 Annex V.A8 (Methods A, B, C); format: physicochemical
Method in brief: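 LogP was determined by C18 reverse-phase HPLC/UPLC with acetonitrile/water eluents containing formic acid. Method A used a 10–95% acetonitrile gradient over 4.25 min at 55 °C and 2.0 mL/min. Method B used 5–95% over 1.70 min at 55 °C and 2.0 mL/min, and Method C used 10–95% over 3.25 min at 40 °C and 0.8 mL/min, with MS detection.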

[2] = test system: DON/Acetyl-DON production by Fusarium graminearum; test: microbe, parasite or virus in culture; format: cell-based; conditions: at 50 μM
Pyricularia oryzae = format: in vivo; conditions: in vivo
Puccinia recondita = conditions: in vivo
Fusarium graminearum = test: microbe, parasite or virus in culture; format: cell-based; conditions: at 50 μM
Sphaerotheca fuliginea = conditions: in vivo
Septoria tritici = conditions: in vivo
Botrytis cinerea = test: Example N: in vivo preventive test on Botrytis cinerea (grey mould); conditions: dose of 500 ppm; gherkin plants; grading 4-5 days after contamination
Description: The active ingredients tested are prepared by homogenization in a mixture of acetone/tween/DMSO and then diluted with water to obtain the desired active material.
Gherkin plants (“Vert petit de Paris” variety), sown in starter cups on a 50/50 peat soil-pozzolana substrate and grown at 24° C., are treated at the Z11 cotyledon stage by spraying with the active ingredient prepared as described above. Plants, used as controls, are treated with the mixture of acetone/tween/DMSO/water not containing the active material.
After 24 hours, the plants are contaminated by spraying the cotyledons with an aqueous suspension of cryopreserved Botrytis cinerea spores (50 000 spores per ml). The spores are suspended in a nutrient solution composed of 10 g/L of PDB, 50 g/L of D-Fructose, 2 g/L of NH4NO3 and 1 g/L of KH2PO4. The contaminated gherkin plants are incubated at 17° C. and at 80% relative humidity.
Grading (% of efficacy) is carried out 4-5 days after the contamination, in comparison with the control plants.

Phytophthora infestans = conditions: in vivo
Pyrenophora teres = conditions: in vivo
Uromyces appendiculatus = conditions: in vivo

| SMILES | LogP ([1]; Method B (HPLC, reverse phase C18)) | Inhibition of DON/AcDON in % [2] [%] | protection (% of efficacy) (Pyricularia oryzae) [%] | protection (% of efficacy) (Puccinia recondita) [%] | Growth inhibition of Fusarium graminearum in % (Fusarium graminearum) [%] | protection (% of efficacy) (Sphaerotheca fuliginea) [%] | protection (% of efficacy) (Septoria tritici) [%] | protection (% of efficacy) (Botrytis cinerea) [%] | LogP ([1]; Method A: HPLC, reverse phase C18, acetonitrile (0.1% formic acid)/water (0.09% formic acid) gradient) | protection (% of efficacy) (Phytophthora infestans) [%] | protection (% of efficacy) (Pyrenophora teres) [%] | protection (% of efficacy) (Uromyces appendiculatus) [%] |
| --- | --- | --- | --- | --- | --- | --- | --- | --- | --- | --- | --- | --- |
| O=C(Nc1cc(-c2c(-c3ccc(F)cc3)nn3c2OCCC3)ccn1)C1CC2CCC1C2 (stereo not drawn) [Example 64] | 3.11 | 98 | 80 | 81 | 83 | 100 | 86 | 100 |  |  |  |  |
| CCC(=O)Nc1cc(-c2c(-c3ccc(F)cc3)nn3c2O[C@H](C)C[C@H]3C)ccn1 [Example 72] |  | 100 | 80 | 98 | 77 | 100 | 75 |  | 1.84 | 75 | 94 | 96 |
